This note sets out measurements from patent EP4104902B1, “COMPOUNDS AND M[…] SAME” (priority 2020, dated 2021).

The structures appear in SMILES notation.

The assay relates to recombinant rabies virus 1088 strain expressing Gaussia Luciferase (GLuc) (1088/GLuc). In kind it is cell-based. Conditions: read-out: Anti-rabies activity.

In the case of `CC(C)CN1C[C@H]2C[C@]3(C(=O)NCCc4ccccc4)NC[C@H]2[C@H]1[C@H]3Cc1ccc(O)cc1` (relative stereo) [IF-567], the IC50 is 10 to 30 µM. The same measure for `CCCCCCNC(=O)[C@@]12C[C@@H]3CN(CC(C)C)[C@@H]([C@@H]3CN1)[C@H]2CC(C)C` (relative stereo) [IF-569]: 10 to 30 µM; for `CC(C)CN1C[C@H]2C[C@]3(C(=O)NCc4ccc(O)cc4)NC[C@H]2[C@H]1[C@H]3CCc1ccccc1` (relative stereo) [IF-576]: 10 to 30 µM. For `CC(C)C[C@@H]1[C@@H]2[C@@H]3CN[C@@]1(C(=O)NCc1cccc4ccccc14)C[C@@H]3CN2Cc1ccc(O)cc1` (relative stereo) [IF-578], the IC50 is < 5 µM. For `O=C(NCCc1ccccc1)[C@@]12C[C@@H]3CN(Cc4ccc(O)cc4)[C@@H]([C@@H]3CN1)[C@H]2Cc1cccc2ccccc12` (relative stereo) [IF-580], the IC50 was in the range of 10 to 30 µM. As to `CCCCCCNC(=O)[C@@]12C[C@@H]3CN(CCC(C)C)[C@@H]([C@@H]3CN1)[C@H]2Cc1ccc(O)cc1` (relative stereo) [IF-583], the IC50 was < 5 µM. The figure for `CC(C)CCNC(=O)[C@@]12C[C@@H]3CN(Cc4ccc(F)cc4)[C@@H]([C@@H]3CN1)[C@H]2Cc1ccccc1` (relative stereo) [IF-584] is < 5 µM; for `CC(C)CCNC(=O)[C@@]12C[C@@H]3CN(Cc4ccc(F)cc4)[C@@H]([C@@H]3CN1)[C@H]2CC(C)C` (relative stereo) [IF-585] it is < 5 µM. The same measure for `O=C(NCCc1ccccc1)[C@@]12C[C@@H]3CN(Cc4ccc(F)cc4)[C@@H]([C@@H]3CN1)[C@H]2Cc1ccccc1` (relative stereo) [IF-586]: 10 to 30 µM. Regarding `CC(C)NC(=O)[C@@]12C[C@@H]3CN(Cc4cccc5ccccc45)[C@@H]([C@@H]3CN1)[C@H]2Cc1cccc2ccccc12` (relative stereo) [IF-596], the IC50 was 10 to 30 µM. The same measure for `CCCCCCNC(=O)[C@@]12C[C@@H]3CN(CCC(C)C)[C@@H]([C@@H]3CN1)[C@H]2Cc1ccccc1` (relative stereo) [IF-599]: 10 to 30 µM. The figure for `CCCCCCNC(=O)[C@@]12C[C@@H]3CN(CCc4ccccc4)[C@@H]([C@@H]3CN1)[C@H]2Cc1ccccc1` (relative stereo) [IF-602] is 10 to 30 µM. On to `O=C(NCCO)[C@@]12C[C@@H]3CN(Cc4cccc5ccccc45)[C@@H]([C@@H]3CN1)[C@H]2Cc1ccccc1` (relative stereo) [IF-603], for which the IC50 is 10 to 30 µM. Regarding `CC(C)C[C@@H]1[C@@H]2[C@@H]3CN[C@@]1(C(=O)NCCO)C[C@@H]3CN2Cc1cccc2ccccc12` (relative stereo) [IF-604], the IC50 lay in the range of 10 to 30 µM. Turning to `CC(C)C[C@@H]1[C@@H]2[C@@H]3CN[C@@]1(C(=O)NCCO)C[C@@H]3CN2CC1CCCCC1` (relative stereo) [IF-606], the IC50 lay within 10 to 30 µM. The figure for `O=C(NCCc1ccccc1)[C@@]12C[C@@H]3CN(CCO)[C@@H]([C@@H]3CN1)[C@H]2Cc1cccc2ccccc12` (relative stereo) [IF-610] is 10 to 30 µM; for `CC(C)CCN1C[C@H]2C[C@]3(C(=O)NCCO)NC[C@H]2[C@H]1[C@H]3Cc1cccc2ccccc12` (relative stereo) [IF-611] it is 10 to 30 µM; for `O=C(NCCO)[C@@]12C[C@@H]3CN(CCc4ccccc4)[C@@H]([C@@H]3CN1)[C@H]2Cc1cccc2ccccc12` (relative stereo) [IF-612] it is 10 to 30 µM. The figure for `CC(C)CC[C@@H]1[C@@H]2[C@@H]3CN[C@@]1(C(=O)NCCO)C[C@@H]3CN2Cc1cccc2ccccc12` (relative stereo) [IF-613] is 10 to 30 µM; for `O=C(NCCO)[C@@]12C[C@@H]3CN(Cc4cccc5ccccc45)[C@@H]([C@@H]3CN1)[C@H]2Cc1cccc2ccccc12` (relative stereo) [IF-614] it is 10 to 30 µM; for `O=C(NCCO)[C@@]12C[C@@H]3CN(CC4CCCCC4)[C@@H]([C@@H]3CN1)[C@H]2Cc1cccc2ccccc12` (relative stereo) [IF-619] it is 10 to 30 µM.

On to `O=C(NCCO)[C@@]12C[C@@H]3CN(Cc4ccc(F)cc4)[C@@H]([C@@H]3CN1)[C@H]2Cc1cccc2ccccc12` (relative stereo) [IF-620], for which the IC50 is < 5 µM. The figure for `O=C(NCCO)[C@@]12C[C@@H]3CN(Cc4ccccc4)[C@@H]([C@@H]3CN1)[C@H]2Cc1cccc2ccccc12` (relative stereo) [IF-624] is 10 to 30 µM; for `CC(C)CCN1C[C@H]2C[C@]3(C(=O)NCC(C)C)NC[C@H]2[C@H]1[C@H]3CCc1ccccc1` (relative stereo) [IF-635] it is 10 to 30 µM.

For `CC(C)C[C@@H]1[C@@H]2[C@@H]3CN[C@@]1(C(=O)NCc1ccccc1)C[C@@H]3CN2CCc1ccccc1` (relative stereo) [IF-639], the IC50 is < 5 µM. On to `O=C(NCc1ccccc1)[C@@]12C[C@@H]3CN(CCc4ccccc4)[C@@H]([C@@H]3CN1)[C@H]2Cc1ccc(O)cc1` (relative stereo) [IF-640], for which the IC50 fell in the range of 10 to 30 µM. As to `CC(C)CNC(=O)[C@@]12C[C@@H]3CN(CCc4ccccc4)[C@@H]([C@@H]3CN1)[C@H]2Cc1ccccc1` (relative stereo) [IF-641], the IC50 is < 5 µM. The same measure for `CC(C)C[C@@H]1[C@@H]2[C@@H]3CN[C@@]1(C(=O)NCc1ccccc1)C[C@@H]3CN2CC1CCCCC1` (relative stereo) [IF-644]: < 5 µM. In the case of `O=C(NCc1ccccc1)[C@@]12C[C@@H]3CN(CC4CCCCC4)[C@@H]([C@@H]3CN1)[C@H]2Cc1ccc(O)cc1` (relative stereo) [IF-645], the IC50 fell in the range of 10 to 30 µM. The figure for `CC(C)CNC(=O)[C@@]12C[C@@H]3CN(CC4CCCCC4)[C@@H]([C@@H]3CN1)[C@H]2Cc1cccc2ccccc12` (relative stereo) [IF-646] is < 5 µM; for `O=C(NCc1ccccc1)[C@@]12C[C@@H]3CN(Cc4ccc(F)cc4)[C@@H]([C@@H]3CN1)[C@H]2Cc1ccccc1` (relative stereo) [IF-649] it is < 5 µM; for `CC(C)C[C@@H]1[C@@H]2[C@@H]3CN[C@@]1(C(=O)NCc1ccccc1)C[C@@H]3CN2Cc1ccc(F)cc1` (relative stereo) [IF-650] it is < 5 µM. Turning to `CC(C)CNC(=O)[C@@]12C[C@@H]3CN(Cc4ccc(F)cc4)[C@@H]([C@@H]3CN1)[C@H]2CCc1ccccc1` (relative stereo) [IF-652], the IC50 is < 5 µM. The same measure for `CC(C)CNC(=O)[C@@]12C[C@@H]3CN(Cc4ccc(F)cc4)[C@@H]([C@@H]3CN1)[C@H]2Cc1ccccc1` (relative stereo) [IF-653]: 10 to 30 µM. The same measure for `CC(C)CNC(=O)[C@@]12C[C@@H]3CN(Cc4ccc(F)cc4)[C@@H]([C@@H]3CN1)[C@H]2CC(C)C` (relative stereo) [IF-654]: < 5 µM; for `CC(C)CCNC(=O)[C@@]12C[C@@H]3CN(CCO)[C@@H]([C@@H]3CN1)[C@H]2Cc1ccccc1` (relative stereo) [IF-656]: 10 to 30 µM. For the compound `CC(C)CCNC(=O)[C@@]12C[C@@H]3CN(CCc4ccccc4)[C@@H]([C@@H]3CN1)[C@H]2CC(C)C` (relative stereo) [IF-657], the IC50 was < 5 µM. Turning to `CC(C)CCNC(=O)[C@@]12C[C@@H]3CN(CC4CCCCC4)[C@@H]([C@@H]3CN1)[C@H]2Cc1ccccc1` (relative stereo) [IF-658], the IC50 was < 5 µM.

In the case of `CC(C)CCNC(=O)[C@@]12C[C@@H]3CN(CC4CCCCC4)[C@@H]([C@@H]3CN1)[C@H]2CC(C)C` (relative stereo) [IF-659], the IC50 was 10 to 30 µM. The figure for `CC(C)CCNC(=O)[C@@]12C[C@@H]3CN(CCO)[C@@H]([C@@H]3CN1)[C@H]2Cc1cccc2ccccc12` (relative stereo) [IF-660] is 10 to 30 µM. `CC(C)CCNC(=O)[C@@]12C[C@@H]3CN(Cc4ccccc4)[C@@H]([C@@H]3CN1)[C@H]2Cc1ccccc1` (relative stereo) [IF-665]: the IC50 was < 5 µM. As to `CC(C)CNC(=O)[C@@]12C[C@@H]3CN(Cc4ccccc4)[C@@H]([C@@H]3CN1)[C@H]2CCc1ccccc1` (relative stereo) [IF-670], the IC50 is < 5 µM. The same measure for `CC(C)CCNC(=O)[C@@]12C[C@@H]3CN(CC(C)C)[C@@H]([C@@H]3CN1)[C@H]2CCc1ccccc1` (relative stereo) [IF-673]: < 5 µM; for `CC(C)CCNC(=O)[C@@]12C[C@@H]3CN(CC(C)C)[C@@H]([C@@H]3CN1)[C@H]2Cc1cccc2ccccc12` (relative stereo) [IF-674]: 10 to 30 µM; for `CC(C)CC[C@@H]1[C@@H]2[C@@H]3CN[C@@]1(C(=O)NCc1ccccc1)C[C@@H]3CN2CC(C)C` (relative stereo) [IF-675]: < 5 µM. Turning to `CC(C)CNC(=O)[C@@]12C[C@@H]3CN(CC(C)C)[C@@H]([C@@H]3CN1)[C@H]2CCc1ccccc1` (relative stereo) [IF-679], the IC50 is < 5 µM. Take `CC(C)CNC(=O)[C@@]12C[C@@H]3CN(CC(C)C)[C@@H]([C@@H]3CN1)[C@H]2Cc1cccc2ccccc12` (relative stereo) [IF-680]: the IC50 lay in the range of 10 to 30 µM.

Consider `CC(C)CCNC(=O)[C@@]12C[C@@H]3CN(Cc4ccc(O)cc4)[C@@H]([C@@H]3CN1)[C@H]2Cc1cccc2ccccc12` (relative stereo) [IF-684], for which the IC50 lay in the range of 10 to 30 µM. The figure for `CC(C)CCNC(=O)[C@@]12C[C@@H]3CN(Cc4ccccc4)[C@@H]([C@@H]3CN1)[C@H]2CC(C)C` (relative stereo) [IF-691] is 10 to 30 µM.

Take `CCCCCCNC(=O)[C@@]12C[C@@H]3CN(Cc4ccccc4)[C@@H]([C@@H]3CN1)[C@H]2Cc1ccc(O)cc1` (relative stereo) [IF-692]: the IC50 was < 5 µM.

In the case of `CC(C)C[C@@H]1[C@@H]2[C@@H]3CN[C@@]1(C(=O)NCCC(N)=O)C[C@@H]3CN2CCc1ccccc1` (relative stereo) [IF-699], the IC50 was in the range of 10 to 30 µM. The figure for `CC(C)CCN1C[C@H]2C[C@]3(C(=O)NCc4cccc5ccccc45)NC[C@H]2[C@H]1[C@H]3CC(C)C` (relative stereo) [IF-705] is < 5 µM. The same measure for `CC(C)CCN1C[C@H]2C[C@]3(C(=O)NCc4cccc5ccccc45)NC[C@H]2[C@H]1[C@H]3Cc1ccc(O)cc1` (relative stereo) [IF-706]: < 5 µM.
